Experimental data taken from PMC7712541, “Seven New Cytotoxic and Antimicrobial Xanthoquinodins from Jugulospora vestita” (Journal of Fungi, 2020).
Converted amounts (≈) assume the structure as drawn.

Assays:
[1] = system: Pichia anomala; test: MIC, antifungal test; type: cell-based; set-up: key to Minimum inhibitory concentration (MIC): –: no inhibition observed under test conditions
Experimental: (§1) Compounds were tested for their antimicrobial activity against […] fungi (Candida albicans, Mucor hiemails, Pichia anomala, Rhodotorula glutinis and Schizosaccharomyces pombe), four different Gram-positive bacteria (Bacillus subtilis, Micrococcus luteus, Mycobacterium smegmatis and Staphylococcus aureus), and three Gram-negative bacteria (Chromobacterium violaceum, Escherichia coli and Pseudomonas aeruginosa), using oxytetracycline as a positive control against Gram-positive and Gram-negative bacteria, while nystatin was used as an antifungal positive control. Besides, cytotoxicities of the compounds against seven mammalian cell lines (human endocervical adenocarcinoma KB 3.1, breast cancer MCF-7, lung cancer A549, ovary cancer SK-OV-3, prostate cancer PC-3, squamous cancer A431, and mouse fibroblasts L929) were determined by the microculture tetrazolium test (MTT) method, using epothilon B as the positive control. Both bioactivity assays were performed following our standard protocols.

[2] = system: Candida albicans; test: MIC, antifungal test; type: cell-based; set-up: key to Minimum inhibitory concentration (MIC): –: no inhibition observed under test conditions
Experimental: as §1

[3] = system: Mucor hiemalis; test: MIC, antifungal test; type: cell-based; set-up: key to Minimum inhibitory concentration (MIC): –: no inhibition observed under test conditions; details: for MIC: read-out: Minimum inhibitory concentration (MIC)
Experimental: as §1

[4] = system: Rhodotorula glutinis; test: MIC, antifungal test; type: cell-based; set-up: key to Minimum inhibitory concentration (MIC): –: no inhibition observed under test conditions; details: for MIC: read-out: Minimum inhibitory concentration (MIC)
Experimental: as §1

[5] = system: Schizosaccharomyces pombe; test: MIC, antifungal test; type: cell-based; set-up: key to Minimum inhibitory concentration (MIC): –: no inhibition observed under test conditions
Experimental: as §1

[6] = system: KB 3.1, L929, A549, SK-OV-3, PC-3, A431, and MCF-7 mammalian cell lines; test: Cytotoxicity, summary over all tested cell lines; type: cell-based; details: seven mammalian cell lines; read-out: IC50 values, range over all tested cell lines
Experimental: as §1

[7] = system: Escherichia coli; test: MIC, antibacterial test; type: cell-based; set-up: key to Minimum inhibitory concentration (MIC): –: no inhibition observed under test conditions
Experimental: as §1

[8] = system: Pseudomonas aeruginosa; test: MIC, antibacterial test; type: cell-based; set-up: key to Minimum inhibitory concentration (MIC): –: no inhibition observed under test conditions
Experimental: as §1

[9] = system: Chromobacterium violaceum; test: MIC, antibacterial test; type: cell-based; set-up: key to Minimum inhibitory concentration (MIC): –: no inhibition observed under test conditions
Experimental: as §1

[10] = system: Mycobacterium smegmatis; test: MIC, antibacterial test; type: cell-based; set-up: key: –: no inhibition observed under test conditions
Experimental: as §1

[11] = Cytotoxicity, MTT method
Experimental: as §1

[12] = system: Staphylococcus aureus; test: MIC, antibacterial test; type: cell-based; details: read-out: Minimum inhibitory concentration (MIC)
Experimental: as §1

[13] = system: Bacillus subtilis; test: MIC, antibacterial test; type: cell-based; details: read-out: Minimum inhibitory concentration (MIC)
Experimental: as §1

[14] = system: Micrococcus luteus; test: MIC, antibacterial test; type: cell-based; details: read-out: Minimum inhibitory concentration (MIC)
Experimental: as §1

[15] = system: NCI-H187 and Vero; set-up: method as in PMID 29677644; details: cited from earlier work
[16] = system: Co. truncatum and Cu. lunata; set-up: method as in PMID 29677644; details: cited from earlier work
[17] = system: Al. brassicicola, Co. gloeosporioides, Co. truncatum, Cu. lunata and Py. grisea; set-up: method as in PMID 29677644; details: cited from earlier work
[18] = human, A431 squamous cancer cells
[19] = human, KB 3.1 endocervical adenocarcinoma cells
[20] = human, MCF-7 breast cancer cells
[21] = human, PC-3 prostate cancer cells
[22] = human, SK-OV-3 ovary cancer cells
[23] = read-out: Minimum inhibitory concentration (MIC)

| Compound | Minimum inhibitory concentration (MIC) [1] | Minimum inhibitory concentration (MIC) [2] | MIC [3] | Minimum inhibitory concentration (MIC) [4] | Minimum inhibitory concentration (MIC) [5] | IC50 [6] | Minimum inhibitory concentration (MIC) [7] | Minimum inhibitory concentration (MIC) [8] | Minimum inhibitory concentration (MIC) [9] | Minimum inhibitory concentration (MIC) [10] | MIC [12] | MIC [13] | MIC [14] | further results |
| --- | --- | --- | --- | --- | --- | --- | --- | --- | --- | --- | --- | --- | --- | --- |
| CCCC(=O)O[C@H]1c2cc(C)cc(O)c2C(=O)C2=C(O)[C@H]3C=C[C@]21Cc1cc2c(c(O)c13)C(=O)C1=C(O)CC[C@H](O)[C@@]1(C(=O)OC)O2 [Compound 1, Xanthoquinodin A11] | – | – | 66.7 µg/mL (≈ 103 µM) | – | – | 30 to 1460 nM | – | – | – | – | 2.1 µg/mL (≈ 3.26 µM) | 0.4 µg/mL (≈ 0.621 µM) | 4.2 µg/mL (≈ 6.52 µM) | IC50 ([11]; mouse): 1130 nM |
| CCCC(=O)O[C@H]1c2cc(C)cc(O)c2C(=O)C2=C(O)[C@H]3C=C[C@]21Cc1cc(O)c2c(c13)O[C@@]1(C(=O)OC)C(=C(O)CC[C@@H]1O)C2=O [Compound 2, Xanthoquinodin B10] | – | – |  | – | – | 30 to 1460 nM | – | – | – | – | 2.1 µg/mL (≈ 3.26 µM) | 0.4 µg/mL (≈ 0.621 µM) | 2.1 µg/mL (≈ 3.26 µM) | Minimum inhibitory concentration (MIC) [3]: –; IC50 [11, 18]: 60 nM; IC50 ([11]; human, A549 lung cancer cells): 400 nM; IC50 [11, 19]: 190 nM; IC50 [11, 20]: 40 nM; IC50 [11, 21]: 1060 nM; IC50 [11, 22]: 130 nM; IC50 ([11]; mouse, L929 fibroblasts): 1460 nM |
| CCCC(=O)O[C@H]1c2cc(C)cc(O)c2C(=O)C2=C(O)[C@H]3C=C[C@]21Cc1cc(O)c2c(c13)O[C@]1(C(=O)OC)C(=C(O)CC[C@@H]1O)C2=O [Compound 3, Xanthoquinodin B11] | 8.30 µg/mL (≈ 12.9 µM) |  | 2.1 µg/mL (≈ 3.26 µM) | 2.10 µg/mL (≈ 3.26 µM) |  | 30 to 1460 nM | – | – | – | – | 1 µg/mL (≈ 1.55 µM) | 0.2 µg/mL (≈ 0.31 µM) | 2.1 µg/mL (≈ 3.26 µM) | MIC ([1]; Hansenula anomala, read-out: Minimum inhibitory concentration (MIC)): 8.3 µg/mL (≈ 12.9 µM); MIC [2, 23]: 16.7 µg/mL (≈ 25.9 µM); Minimum inhibitory concentration (MIC) [3]: 2.10 µg/mL (≈ 3.26 µM); MIC [4]: 2.1 µg/mL (≈ 3.26 µM); MIC [5, 23]: 66.7 µg/mL (≈ 103 µM); IC50 [11, 18]: 50 nM; IC50 ([11]; human, A549 lung cancer cells): 260 nM; IC50 [11, 19]: 150 nM; IC50 [11, 20]: 40 nM; IC50 [11, 21]: 650 nM; IC50 [11, 22]: 150 nM; IC50 ([11]; mouse, L929 fibroblasts): 980 nM |
| CCCC(=O)O[C@H]1c2cc(C)cc(O)c2C(=O)C2=C(O)[C@H]3C=C[C@]21Cc1cc(O)c2c(c13)O[C@@]1(C(=O)OC)C(=C(O)[C@@H](O)C[C@@H]1O)C2=O [Compound 4, Xanthoquinodin B12] | – | – | 66.7 µg/mL (≈ 101 µM) |  | – | 1030 to 18600 nM | – | – | – | – | 2.1 µg/mL (≈ 3.18 µM) | 0.8 µg/mL (≈ 1.21 µM) | 2.1 µg/mL (≈ 3.18 µM) | MIC [4]: 66.7 µg/mL (≈ 101 µM); IC50 ([11]; mouse): 13500 nM |
| COC(=O)[C@]12Oc3c(c(O)cc4c3[C@@H]3C=C[C@]5(C4)C(=C3O)C(=O)c3c(O)cc(C)cc3[C@@H]5OC(C)=O)C(=O)C1=C(O)CC[C@@H]2O [Compound 5, Xanthoquinodin B13] | – | – | 66.7 µg/mL (≈ 108 µM) | – | – | 30 to 1460 nM | – | – | – | – | 8.3 µg/mL (≈ 13.5 µM) | 0.2 µg/mL (≈ 0.324 µM) | 2.1 µg/mL (≈ 3.41 µM) | IC50 ([11]; mouse): 1120 nM |
| CCCC(=O)O[C@H]1c2cc(C)cc(O)c2C(=O)C2=C(O)[C@H]3C=C[C@]21Cc1cc(O)c2c(c13)O[C@@](C(=O)OC)([C@@H]1CCC(=O)O1)CC2=O [Compound 6, Xanthoquinodin B14] | – | – | 66.7 µg/mL (≈ 103 µM) | – | – | 1030 to 18600 nM | – | – | – | – | 4.2 µg/mL (≈ 6.52 µM) | 4.2 µg/mL (≈ 6.52 µM) | 8.3 µg/mL (≈ 12.9 µM) | IC50 [11, 18]: 3110 nM; IC50 ([11]; human, A549 lung cancer cells): 18600 nM; IC50 [11, 19]: 3420 nM; IC50 [11, 20]: 1100 nM; IC50 [11, 21]: 5430 nM; IC50 [11, 22]: 3880 nM; IC50 ([11]; mouse, L929 fibroblasts): 10600 nM |
| CCCC(=O)O[C@H]1c2cc(C)cc(O)c2C(=O)C2=C(O)[C@H]3C=C[C@]21Cc1cc(O)c2c(c13)O[C@@](C(=O)OC)([C@@H](O)CCC(=O)O)CC2=O [Compound 7, Xanthoquinodin B15] | – | – | 66.7 µg/mL (≈ 101 µM) | – | – | 1030 to 18600 nM | – | – | – | – | 8.3 µg/mL (≈ 12.5 µM) | 4.2 µg/mL (≈ 6.34 µM) | 4.2 µg/mL (≈ 6.34 µM) | IC50 [11, 18]: 2870 nM; IC50 ([11]; human, A549 lung cancer cells): 11500 nM; IC50 [11, 19]: 3470 nM; IC50 [11, 20]: 1030 nM; IC50 [11, 21]: 4980 nM; IC50 [11, 22]: 3930 nM; IC50 ([11]; mouse, L929 fibroblasts): 9970 nM |
| CNC(C)C1CCC(N)C(OC2C(N)CC(N)C(OC3OCC(C)(O)C(NC)C3O)C2O)O1 (stereo not shown) [gentamicin, reference compound] |  |  |  |  |  |  |  |  |  |  |  |  |  | MIC [8, 23]: 0.4 µg/mL (≈ 0.838 µM) |
| NC[C@H]1O[C@H](O[C@H]2[C@H](O)[C@@H](O[C@H]3O[C@H](CO)[C@@H](O)[C@H](N)[C@H]3O)[C@H](N)C[C@@H]2N)[C@H](O)[C@@H](O)[C@@H]1O [kanamycin, reference compound] |  |  |  |  |  |  |  |  |  | 1.70 ^3 µg/mL |  |  |  |  |
| C[C@@H]1[C@H](O)[C@@H](C)/C=C/C=C/CC/C=C/C=C/C=C/C=C/C(O[C@H]2O[C@H](C)[C@@H](O)[C@H](N)[C@@H]2O)CC2O[C@](O)(CC(O)C(O)CCC(O)CC(O)CC(O)CC(=O)O[C@H]1C)CC(O)C2C(=O)O (stereo partly shown) [nystatin, reference compound] | 33.30 ^1 µg/mL | 33.30 ^1 µg/mL |  | 16.70 ^1 µg/mL | 33.30 ^1 µg/mL |  |  |  |  |  |  |  |  | Minimum inhibitory concentration (MIC) [3]: 33.30 ^1 µg/mL |
| CN(C)[C@@H]1C(O)=C(C(N)=O)C(=O)[C@@]2(O)C(O)=C3C(=O)c4c(O)cccc4[C@@](C)(O)[C@H]3[C@H](O)[C@@H]12 [oxytetracycline, reference compound] |  |  |  |  |  |  |  |  |  |  | 0.4 µg/mL (≈ 0.869 µM) | 8.3 µg/mL (≈ 18 µM) | 0.8 µg/mL (≈ 1.74 µM) | MIC [7, 23]: 3.3 µg/mL (≈ 7.17 µM); MIC [9, 23]: 0.8 µg/mL (≈ 1.74 µM) |
| COC(=O)[C@]12Oc3cc4c(c(O)c3C(=O)C1=C(O)CC[C@@H]2O)[C@@H]1C=C[C@]2(C4)C(=C(O)c3c(O)cc(C)cc3[C@@H]2O)C1=O [xanthoquinodin A6] |  |  |  |  |  |  |  |  |  |  |  |  |  | Cytotoxicity compared with other xanthoquinodins (in words) [15]: stronger cytotoxicity; Antifungal effects (in words) [16]: significant antifungal effects |
| COC(=O)[C@@]12Oc3c(c(O)cc4c3[C@@H]3C=C[C@]5(C4)C(=C(O)c4c(O)cc(C)cc4[C@@H]5O)C3=O)C(=O)C1=C(O)CC[C@@H]2O [xanthoquinodin B5] |  |  |  |  |  |  |  |  |  |  |  |  |  | Cytotoxicity compared with other xanthoquinodins (in words) [15]: stronger cytotoxicity; Antifungal effects (in words) [17]: significant antifungal effects |
| ketoxanthoquinodin A6 |  |  |  |  |  |  |  |  |  |  |  |  |  | Antifungal effects (in words) [16]: significant antifungal effects |
